From article PMC12339982 (Nature Communications, 2025)

Tests used:
[1] = biological target: T1, human wild type TauT (TauT^WT) (Homo sapiens, UniProt P31641); assay: [3H]taurine uptake inhibition assay in HEK293T cells overexpressing TauT^WT; assay type: cell-based; conditions: for inhibition of the uptake activity of TauT: result in words
T1 sequence (P31641 1-620): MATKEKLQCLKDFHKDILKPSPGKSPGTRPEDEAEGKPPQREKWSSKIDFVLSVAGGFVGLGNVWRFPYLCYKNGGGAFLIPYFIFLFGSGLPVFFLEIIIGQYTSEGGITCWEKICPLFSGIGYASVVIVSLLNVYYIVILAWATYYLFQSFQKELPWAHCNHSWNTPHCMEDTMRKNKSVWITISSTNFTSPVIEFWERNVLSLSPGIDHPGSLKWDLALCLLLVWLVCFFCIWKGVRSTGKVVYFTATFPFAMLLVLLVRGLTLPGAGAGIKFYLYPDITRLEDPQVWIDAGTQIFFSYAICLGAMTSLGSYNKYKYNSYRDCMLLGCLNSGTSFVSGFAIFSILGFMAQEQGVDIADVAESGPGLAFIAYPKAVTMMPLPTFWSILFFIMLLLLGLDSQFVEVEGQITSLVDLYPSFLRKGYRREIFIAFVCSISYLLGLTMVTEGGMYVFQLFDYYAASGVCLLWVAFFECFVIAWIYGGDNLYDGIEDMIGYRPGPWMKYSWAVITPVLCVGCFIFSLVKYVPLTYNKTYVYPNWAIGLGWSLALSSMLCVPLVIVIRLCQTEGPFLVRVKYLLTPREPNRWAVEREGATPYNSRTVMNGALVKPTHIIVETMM

hGAT1 = conditions: previous studies; cited from earlier work

Row | IC50 [1] [µM] | inhibition of the uptake activity of TauT [1] | Structure (SMILES) | IC50 for hGAT1 compared with hTauT (hGAT1)
1 | 770 ± 160 | concentration-dependently inhibited | NCCCS(=O)(=O)O [Htau, homotaurine] | –
2 | – | concentration-dependently inhibited | O=C(O)C1CCCNC1 (stereo not shown) [nipecotic acid] | lower IC50 value for hGAT1 than for hTauT
3 | – | concentration-dependently inhibited | O=S(=O)(O)C1CCNCC1 [P4S, piperidine-4-sulfonic acid] | –
4 | – | concentration-dependently inhibited | NCCCCC(=O)O [5AVA, 5-aminovaleric acid] | –

Row | Structure (SMILES) | IC50 [1] [µM] | inhibition of the uptake activity of TauT [1] | IC50 for hGAT1 compared with hTauT (hGAT1)
5 | O=C(O)Cc1c[nH]cn1 [I4AA, imidazole-4-acetic acid] | – | concentration-dependently inhibited | –
